According to article PMC12087695, “A Phenotyping Tool for Seven Cytochrome P450 Enzymes and Two Transporters: Application to Examine the Effects of Clopidogrel and Gemfibrozil” (Clinical Pharmacology and Therapeutics, 2025):

Key:
[1] = Plasma pharmacokinetics of cocktail index drugs and their metabolites, five-phase crossover trial; details: for AUC(0-t) / AUC(0-inf) / Cmax / half-life / Tmax: human, plasma, oral; for AUC(0-t) / AUC(0-inf) / Cmax: geometric mean (geometric CV); for AUC(0-inf): AUC0-∞; for half-life: t1/2, geometric mean (geometric CV); for Tmax: median (range);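 as to all read-outs here: parameters derived from plasma drug levels quantified by LC–MS with internal standards after acetonitrile protein precipitation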
Protocol: (§1) This open‐label cross‐over clinical trial included five study phases that each participant underwent in a randomized order (Table 1 ). There was at least 2‐week washout period between different study days.
(§2) On study days, venous blood samples from all participants were drawn from forearm vein cannulas before the administration of the pretreatment drugs and 5 minutes before and 0.5, 1, 1.5, 2, 3, 4, 6, 8, 12, and 23 hours after the administration of the index drugs for determination of index drug and metabolite concentrations. […] Standardized breakfast was served 1 hour, lunch 3 hours, and snacks 7 and 9 hours after the administration of index drugs.
(§3) Prior to the analysis, the analytes were extracted from the plasma samples with simple protein precipitation. Plasma samples (50 μL) were mixed with acetonitrile solution (200 μL) containing internal standards. The samples were centrifugated and an aliquot of the supernatant was mixed with an equal volume of water before LC–MS analyses.
(§4) The flow rate was 0.3 mL/min, and the gradient program for the mobile phase B was from 20% to 90% over 7 minutes, wash at 90% 7–9.5 minutes, followed by balancing at 20% before next injection. […] The column and mobile phases were the same as above, and the gradient program for the mobile phase B was from 40% to 90% over 5 minutes, wash at 90% 5–7.3 minutes, followed by balancing at 40% before next injection. The quality control samples for each analyte at relevant concentrations were quantified with each batch of plasma samples.
(§5) Individuals with poor metabolism or transport function phenotype were excluded from respective statistical comparisons.

clinical = details: human; for AUC(0-inf): AUC0-∞; for Tmax: median (range); for half-life: t1/2, geometric mean (geometric CV)
Protocol: as §1, §2, §3, §4, §5

[2] = phase IV: clopidogrel 300 mg pretreatment + full cocktail
[3] = phase V: gemfibrozil 600 mg b.i.d. 3 days pretreatment + full cocktail
[4] = in vivo, AUC0-23h, geometric mean (geometric CV), phase II: Geneva cocktail
[5] = in vivo, geometric mean (geometric CV), phase II: Geneva cocktail
[6] = in vivo, phase II: Geneva cocktail
[7] = AUC0-12h, phase II: Geneva cocktail
[8] = in vivo, AUC0-23h, geometric mean (geometric CV), phase IV: clopidogrel 300 mg pretreatment + full cocktail
[9] = in vivo, AUC0-23h, geometric mean (geometric CV), phase V: gemfibrozil 600 mg b.i.d. 3 days pretreatment + full cocktail
[10] = in vivo, geometric mean (geometric CV), phase IV: clopidogrel 300 mg pretreatment + full cocktail
[11] = in vivo, geometric mean (geometric CV), phase V: gemfibrozil 600 mg b.i.d. 3 days pretreatment + full cocktail
[12] = in vivo, phase V: gemfibrozil 600 mg b.i.d. 3 days pretreatment + full cocktail
[13] = in vivo, phase IV: clopidogrel 300 mg pretreatment + full cocktail

Row | SMILES | Cmax, geometric mean (geometric CV) ([1]; phase II: Geneva cocktail) | Tmax, median (range) ([1]; phase II: Geneva cocktail) | Tmax, median (range) [1, 2] | t1/2, geometric mean (geometric CV) [1, 2] | AUC0-23h, geometric mean (geometric CV) [1, 3] | t1/2, geometric mean (geometric CV) [1, 3] | AUC(0-t) (clinical; [4]) [ng·h/mL] | AUC(0-inf) (clinical; [5]) [ng·h/mL] | Cmax (clinical; [5]) [ng/mL] | half-life (clinical; [6]) [h] | AUC(0-t) (clinical; [8]) [ng·h/mL] | AUC(0-t) (clinical; [9]) [ng·h/mL] | AUC(0-inf) (clinical; [10]) [ng·h/mL] | AUC(0-inf) (clinical; [11]) [ng·h/mL] | Cmax (clinical; [10]) [ng/mL] | Cmax (clinical; [11]) [ng/mL] | half-life (clinical; [13]) [h] | half-life (clinical; [12]) [h] | also measured
1 | OCc1ncc2n1-c1ccc(Cl)cc1C(c1ccccc1F)=NC2 [1’-OH-midazolam, 1′‐hydroxymidazolam] | 1.48 (40.9%) ng/mL | 1.0 (0.5-1.0) h | 1.0 (0.5-1.0) h | 1.46 (26.6%) h | 7.33 (41.1%) ng×h/mL | 1.85 (28.8%) h | – | – | – | – | – | – | – | – | – | – | – | – | AUC0-23h, geometric mean (geometric CV) ([1]; phase II: Geneva cocktail): 3.54 (37.4%) ng×h/mL; AUC0-∞, geometric mean (geometric CV) ([1]; phase II: Geneva cocktail): 3.75 (35.9%) ng×h/mL; t1/2, geometric mean (geometric CV) ([1]; phase II: Geneva cocktail): 1.53 (35.6%) h; AUC0-23h, geometric mean (geometric CV) [1, 2]: 5.03 (42.0%) ng×h/mL; AUC0-∞, geometric mean (geometric CV) [1, 2]: 5.15 (39.8%) ng×h/mL; Cmax, geometric mean (geometric CV) [1, 2]: 2.14 (42.5%) ng/mL; AUC0-∞, geometric mean (geometric CV) [1, 3]: 7.65 (36.6%) ng×h/mL; Cmax, geometric mean (geometric CV) [1, 3]: 2.83 (38.7%) ng/mL; Tmax, median (range) [1, 3]: 1.0 (0.5-1.5) h
2 | CC(C(=O)O)c1ccc(-c2ccc(O)cc2)c(F)c1 (stereo not drawn) [4’-OH-flurbiprofen, 4′‐hydroxyflurbiprofen] | – | – | – | – | – | – | 224 | 263 | 46.4 | 3.44 | – | – | – | – | – | – | – | – | Tmax (clinical; [6]): 1.8 h
3 | COc1ccc2nc([S+]([O-])Cc3ncc(CO)c(OC)c3C)[nH]c2c1 (stereo not drawn) [5’-OH-omeprazole, 5′‐hydroxyomeprazole] | 99.8 (87.9%) ng/mL | 1.5 (1.0-2.0) h | 1.5 (1.0-3.0) h | 1.04 (15.5%) h | 253 (37.6%) ng×h/mL | 1.34 (32.6%) h | – | – | – | – | – | – | – | – | – | – | – | – | AUC0-23h, geometric mean (geometric CV) ([1]; phase II: Geneva cocktail): 194 (35.7%) ng×h/mL; AUC0-∞, geometric mean (geometric CV) ([1]; phase II: Geneva cocktail): 193 (36.1%) ng×h/mL; t1/2, geometric mean (geometric CV) ([1]; phase II: Geneva cocktail): 1.17 (36.9%) h; AUC0-23h, geometric mean (geometric CV) [1, 2]: 213 (14.6%) ng×h/mL; AUC0-∞, geometric mean (geometric CV) [1, 2]: 212 (14.5%) ng×h/mL; Cmax, geometric mean (geometric CV) [1, 2]: 115 (23.8%) ng/mL; AUC0-∞, geometric mean (geometric CV) [1, 3]: 253 (36.9%) ng×h/mL; Cmax, geometric mean (geometric CV) [1, 3]: 104 (76.9%) ng/mL; Tmax, median (range) [1, 3]: 1.5 (1.0-4.0) h
4 | CC(NC(C)(C)C)C(=O)c1cccc(Cl)c1 (stereo not drawn) [Bupropion, bupropion] | – | – | – | – | – | – | 76.5 | 84.7 | 20 | 7.89 | – | – | – | – | – | – | – | – | –
5 | Cn1c(=O)c2c(ncn2C)n(C)c1=O [Caffeine, caffeine] | – | – | – | – | – | – | – | – | – | – | – | – | – | – | – | – | – | – | AUC(0-t) (clinical; plasma, oral): 6270 ng·h/mL; Prolongation of t1/2 ([1]; gemfibrozil pretreatment vs control): 21%; AUC(0-t) [1, 7]: 6250 ng·h/mL; AUC(0-inf) ([1]; phase II: Geneva cocktail): 7830 ng·h/mL; Cmax ([1]; phase II: Geneva cocktail): 1130 ng/mL; half-life ([1]; phase II: Geneva cocktail): 4.65 h
6 | COc1ccc2c(c1)[C@]13CCCC[C@@H]1[C@H](C2)N(C)CC3 [Dextromethorphan, dextromethorphan] | – | 2.0 (2.0-4.0) h | 2.0 (2.0-3.0) h | – | – | – | 4.9 | 5.58 | 0.745 | 4.24 | 6.01 | 6.07 | 6.68 | 6.82 | 0.858 | 0.898 | 4.61 | 4.38 | Tmax (clinical; [12]): 2.5 h
7 | CN1CC[C@@]23CCCC[C@@H]2[C@@H]1Cc1ccc(O)cc13 [Dextrorphan, dextrorphan] | – | – | – | – | – | – | 8.07 | 8.35 | 1.82 | 2.5 | 9.66 | 17.8 | 10 | 17.8 | 2.05 | 3.63 | 2.68 | 2.77 | Tmax (clinical; [6]): 2 h; Tmax (clinical; [13]): 2 h; Tmax (clinical; [12]): 2 h
8 | CC(C(=O)O)c1ccc(-c2ccccc2)c(F)c1 (stereo not drawn) [Flurbiprofen, flurbiprofen] | – | – | – | – | – | – | 5550 | 5910 | 1090 | 4.82 | 5720 | 5770 | 5940 | 6080 | 1180 | 1110 | 4.35 | 4.61 | Tmax (clinical; [13]): 1.5 h; Tmax (clinical; [12]): 1.5 h
9 | Cc1ncc2n1-c1ccc(Cl)cc1C(c1ccccc1F)=NC2 [Midazolam, midazolam] | 4.03 (36.4%) ng/mL | 0.5 (0.5-1.0) h | 1.0 (0.5-1.0) h | – | – | – | 9.89 | 9.82 | – | 2.29 | 11.3 | 8.06 | 11.2 | 7.98 | 4.33 | 3.25 | 2.4 | 2.29 | –
10 | C[C@H]1NC(C)(C)CO[C@]1(O)c1cccc(Cl)c1 [OH-bupropion, hydroxybupropion] | 36.9 (38.6%) ng/mL | 3.0 (2.0-4.0) h | 4.0 (1.5-12.0) h | 34.6 (42.9%) h | 585 (43.5%) ng×h/mL | 29.4 (51.7%) h | – | – | – | – | – | – | – | – | – | – | – | – | AUC0-23h, geometric mean (geometric CV) ([1]; phase II: Geneva cocktail): 571 (35.3%) ng×h/mL; AUC0-∞, geometric mean (geometric CV) ([1]; phase II: Geneva cocktail): 1200 (44.1%) ng×h/mL; t1/2, geometric mean (geometric CV) ([1]; phase II: Geneva cocktail): 26.1 (40.1%) h; AUC0-23h, geometric mean (geometric CV) [1, 2]: 181 (37.6%) ng×h/mL; AUC0-∞, geometric mean (geometric CV) [1, 2]: 499 (45.3%) ng×h/mL; Cmax, geometric mean (geometric CV) [1, 2]: 10.3 (39.9%) ng/mL; AUC0-∞, geometric mean (geometric CV) [1, 3]: 1380 (41.2%) ng×h/mL; Cmax, geometric mean (geometric CV) [1, 3]: 34.1 (44.6%) ng/mL; Tmax, median (range) [1, 3]: 6.0 (1.0-12.0) h
11 | COc1ccc2nc(S(=O)(=O)Cc3ncc(C)c(OC)c3C)[nH]c2c1 [Omeprazole sulfone, omeprazole sulfone] | – | – | – | – | – | – | – | – | – | – | – | – | – | – | – | – | – | – | AUC(0-t) ([1]; AUC0-23h, phase II: Geneva cocktail): 113 ng·h/mL; AUC(0-t) ([1]; AUC0-23h, phase IV: clopidogrel 300 mg pretreatment + full cocktail): 156 ng·h/mL; AUC(0-t) ([1]; AUC0-23h, phase V: gemfibrozil 600 mg b.i.d. 3 days pretreatment + full cocktail): 124 ng·h/mL; AUC(0-inf) ([1]; phase II: Geneva cocktail): 111 ng·h/mL; AUC(0-inf) [1, 2]: 154 ng·h/mL; AUC(0-inf) [1, 3]: 122 ng·h/mL; Cmax ([1]; phase II: Geneva cocktail): 35.3 ng/mL; Cmax [1, 2]: 51.2 ng/mL; Cmax [1, 3]: 41.8 ng/mL; Tmax ([1]; phase II: Geneva cocktail): 1.5 h; Tmax [1, 2]: 1.5 h; Tmax [1, 3]: 1.5 h; half-life ([1]; phase II: Geneva cocktail): 1.9 h; half-life [1, 2]: 1.88 h; half-life [1, 3]: 1.64 h
12 | COc1ccc2[nH]c([S+]([O-])Cc3ncc(C)c(OC)c3C)nc2c1 (stereo not drawn) [Omeprazole, omeprazole] | 144 (88.5%) ng/mL | – | – | 0.69 (30.9%) h | 150 (62.8%) ng×h/mL | 0.78 (59.9%) h | 177 | 177 | – | 0.76 | 214 | – | 214 | 149 | 167 | 98 | – | – | –
13 | Cn1c(=O)[nH]c2ncn(C)c2c1=O [Paraxanthine, paraxanthine] | – | – | – | – | – | – | – | – | – | – | – | – | – | – | – | – | – | – | AUC(0-t) [1, 7]: 3370 ng·h/mL; AUC(0-t) ([1]; AUC0-12h, phase IV: clopidogrel 300 mg pretreatment + full cocktail): 3940 ng·h/mL; AUC(0-t) ([1]; AUC0-12h, phase V: gemfibrozil 600 mg b.i.d. 3 days pretreatment + full cocktail): 3360 ng·h/mL; AUC(0-inf) ([1]; phase II: Geneva cocktail): 7220 ng·h/mL; AUC(0-inf) [1, 2]: 8930 ng·h/mL; AUC(0-inf) [1, 3]: 9160 ng·h/mL; Cmax ([1]; phase II: Geneva cocktail): 374 ng/mL; Cmax [1, 2]: 436 ng/mL; Cmax [1, 3]: 358 ng/mL; Tmax ([1]; phase II: Geneva cocktail): 4 h; Tmax [1, 2]: 3 h; half-life ([1]; phase II: Geneva cocktail): 11 h; half-life [1, 2]: 12.8 h; half-life [1, 3]: 15.9 h
